From patent publication US9232798B2, “Pesticidal composition and its use” (SUMITOMO CHEMICAL COMPANY, LIMITED, priority 2010, dated 2016)

Tested on: Rhizoctonia solani
Assay: Soybean seed treatment test against Rhizoctonia solani in contaminated soil (Test Example)
Assay type: in vivo, Rhizoctonia solani on soybean (variety: Natto shoryu)
Conditions: carboxamide compound alone 0.2 g/100 kg of seeds (no fipronil), soybean grown 20 days in soil contaminated by Rhizoctonia solani, from disease severity versus non-treated plot
Experimental: A cyclohexanone solution (100 microL) containing prescribed amount (weight) of a test compound was applied on seeds of soybean (variety: Natto shoryu) (10 g) by using a rotary apparatus for seed treatment (Seed dresser, manufactured by Hans-Ulrich Hege GmbH).
One day after the treatment, plastic pot was filled with soil contaminated by Rhizoctonia solani, and the seeds treated with the test compounds were seeded in the soil and cultivated in a glass-greenhouse for 20 days (hereinafter referred to as “treated plot”).
Thereafter, the presence of disease caused by Rhizoctonia solani in the young plants which germinated from each seed was observed and disease severity was calculated according to the following calculation formula (1).
On the other hand, seeds of soybean which were not treated as above were cultivated in the same way as above (hereinafter referred to as “non-treated plot”) and the disease severity in “non-treated plot” was calculated in the same way as above “treated plot”. On the basis of the above disease severity in “treated plot” and the “non-treated plot”, efficacy in “treated plot” was evaluated according to the following calculation formula (2). […]

With `CC1CC(C)(C)c2cccc(NC(=O)c3cn(C)nc3C(F)F)c21` (stereo not shown) [carboxamide compound (1)] the “efficacy (%)” value was 42.1%.
